Laboratory results from paper PMC6009943, “One-pot three-component synthesis of novel spirooxindoles with potential cytotoxic activity against triple-negative breast cancer MDA-MB-231 cells” (Journal of Enzyme Inhibition and Medicinal Chemistry, 2017).
Read-outs that look alike come from different tables or passages of the source.

Legend:
[1] = tested on: MDA-MB-231 cells; assay: In vitro anti-proliferative activity assay (MTT); format: cell-based; details: Homo sapiens, 48 h incubation
Experimental: Cells lines were maintained as monolayers in Dulbecco’s Modified Eagle’s Medium (DMEM) supplemented with 10% FBS, 2 mM L-glutamine, 100 U/ml penicillin and 100 µg/ml streptomycin sulfate. Cells were sub-cultured with trypsine/EDTA solution, counted with haemocytometer and plated onto 96-well plates (5000 cells/well) and left overnight to form a semi-confluent monolayer. […] DMSO (100 µl/well) was added to dissolve the formazan crystals with shaking for 10 min after which the absorbance was read at 590 nm against no cell blanks on a FLuo Star Optima microplate reader (BMG Technologies, Germany). Cell proliferation was calculated comparing the OD values of the DMSO control wells and those of the samples represented as % proliferation to the control.
The in vitro anti-proliferative activity of the newly synthesized spirooxindoles 6a–p was examined against TNBC MDA-MB-231 cells. This assay was performed utilizing the 3–(4,5-dimethylthiazol-2-yl)-2,5-diphenyltetrazolium bromide (MTT) colorimetric assay as described by Mosmann[18]. Adriamycin was included in this assay as a reference drug.

[2] = biological target: T1, EGFR (Homo sapiens, UniProt P00533); assay: EGFR kinase ELISA assay; format: biochemical; details: colorimetric ELISA, mean ± SD of three separate experiments
T1 construct: purchased BPS Biosciences 40321
Experimental: Percent inhibition was calculated by the comparison of compounds treated to control incubations.
Erlotinib, a clinically used EGFR inhibitor, was taken as the reference drug.

[3] = tested on: MDA-MB-231 cancer cell line; details: cited from earlier work
[4] = tested on: tsFT210 cells; design: method as in ref 7 = [7]; 7 Cui C-B , Kakeya H , Osada H. Novel mammalian cell cycle inhibitors, spirotryprostatins A and B, produced by Aspergillus fumigatus , which inhibit mammalian cell cycle at G2/M phase . Tetrahedron 19; details: read-out: IC50, inhibition of cell cycle progression at G2/M phase; cited from earlier work
[5] = tested on: MDA-MB-231 cells; assay: Cell cycle analysis (DNA flow cytometry)
Experimental: Then cells were washed twice with ice-cold phosphate buffered saline (PBS). Subsequently, the treated cells were collected by centrifugation, fixed in ice-cold 70% (v/v) ethanol, washed with PBS, re-suspended with 0.1 mg/mL RNase, stained with 40 mg/mL PI, and analyzed by flow cytometry using FACS Calibur (Becton Dickinson, BD, USA). The cell cycle distributions were calculated using CellQuest software (Becton Dickinson).

[6] = tested on: Bax; assay: Bax level in MDA-MB-231 cells (ELISA); format: cell-based; details: MDA-MB-231 cells treated with compound at its IC50 concentration
Experimental: (§1) The levels of the apoptotic markers (Bax, caspase-3) as well as the anti-apoptotic marker (Bcl-2) were assessed using ELISA colorimetric kits per the manufacturer’s protocol and referring to reported instructions[21]^,[22].
(§2) Bcl-2 family comprises a group of crucial regulatory factors in apoptosis that finely tune the apoptotic switch on/off mechanism. Based on their functional and structural criteria, the members are divided into two major classes; group I proteins that are anti-apoptotic and group II proteins that are apoptotic. Group I anti-apoptotic proteins exert their function by inhibiting group II apoptotic proteins through simply binding to them. Group I proteins bind selectively to the active conformations of group II proteins to prevent them from being inserted into the mitochondria and thus cease the release of pro-apoptotic factors such as cytochrome c, ultimately aborting apoptosis. Thus, the inhibition of group I proteins and/or the activation of group II proteins can successfully induce apoptosis.

[7] = tested on: caspase-3; assay: Active caspase-3 level in MDA-MB-231 cells (ELISA); format: cell-based; details: MDA-MB-231 cells treated with compound at its IC50 concentration
Experimental: as §1
Caspases, a family of cysteineaspartic proteases, are the crucial apoptosis mediators that provide essential links in cell regulatory networks controlling cell death. Caspase-3 is the key executioner caspase which modifies proteins ultimately responsible for apoptosis.

[8] = tested on: MDA-MB-231 cells; assay: Annexin V-FITC apoptosis assay; format: cell-based; details: MDA-MB-231, 24 h
Experimental: Phosphatidylserine externalization was measured using Annexin V-FITC/PI apoptosis detection kit (BD Biosciences, San Jose, CA) according to the manufacturer's instructions, as reported earlier. MDA-MB-231cells were treated with 6e at defined concentrations for 24 h.
Externalization of the phospholipid phosphatidylserine at the cell membrane is a one of the well-recognized hallmarks of cells going into apoptosis[17]^,[29].

[9] = tested on: Bcl-2; assay: Bcl-2 level in MDA-MB-231 cells (ELISA); format: cell-based; details: MDA-MB-231 cells treated with compound at its IC50 concentration
Experimental: as §1, §2

[10] = tested on: WI-38 cells; assay: In vitro cytotoxic activity, WI-38 cells (MTT); format: cell-based, human; details: for Selectivity Index: WI-38 versus MDA-MB-231
Experimental: WI-38 cells ([…]), were obtained from American Type Culture Collection. The cells were propagated in DMEM supplemented with 10% heat-inactivated FBS (Hyclone), 10 μg/ml of insulin (Sigma), and 1% penicillin-streptomycin. All of the other chemicals and reagents were from Sigma, or Invitrogen. Cytotoxicity was determined using MTT assay following a reported procedure.

[11] = tested on: MDA cell lines; design: method as in ref 10 = [10]; 10 Jiang X , Sun Y , Yao J , et al Core scaffold‐inspired concise synthesis of chiral spirooxindole‐pyranopyrimidines with broad‐spectrum anticancer potency . Adv Synth Catal 2012; 354 : 917 – 25 .; details: read-out: IC50, cytotoxicity against MDA cell lines; cited from earlier work
[12] = tested on: MCF-7; design: method as in PMID 24747063; details: ordinary breast cancer; read-out: IC50, cytotoxic activity MCF-7; cited from earlier work
[13] = WI-38, MTT assay, human normal lung fibroblast cell line, read-out: IC50 (µM) WI-38

T1 sequence (P00533 25-1210): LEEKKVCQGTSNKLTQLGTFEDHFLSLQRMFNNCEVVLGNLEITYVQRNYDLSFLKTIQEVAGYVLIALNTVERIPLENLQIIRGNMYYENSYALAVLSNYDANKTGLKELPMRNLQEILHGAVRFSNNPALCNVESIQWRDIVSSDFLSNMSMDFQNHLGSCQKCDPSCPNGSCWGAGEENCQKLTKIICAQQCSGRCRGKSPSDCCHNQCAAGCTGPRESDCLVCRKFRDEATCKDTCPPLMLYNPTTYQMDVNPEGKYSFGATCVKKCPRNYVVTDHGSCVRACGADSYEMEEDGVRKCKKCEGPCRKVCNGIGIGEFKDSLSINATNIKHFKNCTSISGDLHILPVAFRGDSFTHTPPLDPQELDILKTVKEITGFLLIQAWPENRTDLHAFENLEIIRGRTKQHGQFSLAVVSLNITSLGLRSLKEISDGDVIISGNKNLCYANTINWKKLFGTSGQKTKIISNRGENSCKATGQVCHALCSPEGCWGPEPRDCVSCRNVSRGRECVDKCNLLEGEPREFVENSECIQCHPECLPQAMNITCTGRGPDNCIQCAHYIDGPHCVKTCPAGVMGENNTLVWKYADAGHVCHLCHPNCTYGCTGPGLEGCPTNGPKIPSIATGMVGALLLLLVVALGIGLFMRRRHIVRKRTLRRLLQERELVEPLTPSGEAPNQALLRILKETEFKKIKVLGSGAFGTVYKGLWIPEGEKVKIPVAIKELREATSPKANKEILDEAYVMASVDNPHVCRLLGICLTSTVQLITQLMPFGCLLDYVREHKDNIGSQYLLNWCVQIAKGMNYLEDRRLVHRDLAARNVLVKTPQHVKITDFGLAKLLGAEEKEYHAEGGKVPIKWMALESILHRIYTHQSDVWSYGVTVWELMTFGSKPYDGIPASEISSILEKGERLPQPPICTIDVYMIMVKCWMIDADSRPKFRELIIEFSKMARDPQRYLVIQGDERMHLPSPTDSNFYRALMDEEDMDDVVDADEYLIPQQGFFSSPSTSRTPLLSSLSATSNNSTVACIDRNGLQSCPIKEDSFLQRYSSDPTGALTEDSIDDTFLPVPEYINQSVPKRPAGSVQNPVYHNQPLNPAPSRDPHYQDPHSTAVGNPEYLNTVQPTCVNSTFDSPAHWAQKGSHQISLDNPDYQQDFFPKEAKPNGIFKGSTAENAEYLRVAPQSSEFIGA

In the case of `COc1ccc(C2=C(C#N)C3(C(=O)Nc4ccc(Br)cc43)c3c(-c4cccs4)nn(-c4ccccc4)c3N2)cc1` (centres unmarked) [Compound 6k, 5-Bromo-6'-(4-methoxyphenyl)-2-oxo-1'-phenyl-3'-(thiophen-2-yl)-1',7'-dihydrospiro[indoline-3,4'-pyrazolo[3,4-b]pyridine]-5'-carbonitrile], the IC50 [1] is reported as 12.7 µM, the melting point is reported as over 300 °C and the IC50 [2] is reported as 0.31 ± 0.02 µM.

For `O=C(c1ccc(OCCN2CCCC2)cc1)C1C(c2ccccc2)C2CSC(c3ccccc3)N2C12C(=O)Nc1ccc(Cl)cc12` (centres unmarked) [compound (iv)], the IC50 ([3]; reported compound of Figure 1, reference not given, read-out: IC50, cytotoxicity against MDA-MB-231) is given as 4.2 µM.

In the case of `CC(C)=CC1N2C(=O)C3CCCN3C(=O)C2=CC12C(=O)Nc1ccccc12` (centres unmarked) [Spirotryprostatins B], the IC50 [4] is listed as 14 µM.

Molecule `Cc1ccc(C2=C(C#N)C3(C(=O)Nc4ccc(Br)cc43)c3c(-c4cccs4)nn(-c4ccccc4)c3N2)cc1` (centres unmarked) [Compound 6j, 5-Bromo-2-oxo-1'-phenyl-3'-(thiophen-2-yl)-6'-(p-tolyl)-1',7'-dihydrospiro[indoline-3,4'-pyrazolo[3,4-b]pyridine]-5'-carbonitrile] has an IC50 [1] of 13.5 µM, a melting point of 282 to 284 °C and an IC50 [2] of 0.51 ± 0.04 µM.

For `N#CC1=C(c2ccccc2)Nc2c(c(-c3cccs3)nn2-c2ccccc2)C12C(=O)Nc1ccc(Cl)cc12` (centres unmarked) [Compound 6e, 5-Chloro-2-oxo-1',6'-diphenyl-3'-(thiophen-2-yl)-1',7'-dihydrospiro[indoline-3,4'-pyrazolo[3,4-b]pyridine]-5'-carbonitrile], the “Cells in G2-M phase” value [5] was 19.1%, the “Change in the S phase” value [5] was “no significant change” and the IC50 [1] was 6.4 µM. For the same molecule, the “Bax” value [6] was 353.7 pg/mL, the “Bax, number of folds of control” value [6] was 442.1 folds and the “Caspase-3” value [7] was 0.4058 ng/mL. The “Caspase-3, number of folds of control” value [7] was about 36.5 folds, the “Annexin V-FITC positive apoptotic cells, folds compared to control” value [8] was “about 32.8 folds” and the “Percent of annexin V-FITC positive apoptotic cells (UR + LR)” value ([8]; control 1.34%) was 44%. The “Bcl-2” value [9] was 0.7449 ng/mL, the “Bcl-2, number of folds of control” value [9] was 0.276 folds and the IC50 ([10]; Homo sapiens, WI-38, read-out: IC50 (µM) WI-38) was 43.2 µM. It also gave an IC50 [2] of 0.15 ± 0.02 µM.

With `N#CC1=C(c2ccc(Cl)cc2)Nc2c(c(-c3cccs3)nn2-c2ccccc2)C12C(=O)Nc1ccccc12` (centres unmarked) [Compound 6d, 6'-(4-Chlorophenyl)-2-oxo-1'-phenyl-3'-(thiophen-2-yl)-1',7'-dihydrospiro[indoline-3,4'-pyrazolo[3,4-b]pyridine]-5'-carbonitrile] the IC50 [1] was 12 µM, the melting point was 279 to 281 °C and the IC50 [2] was 0.36 ± 0.02 µM.

In the case of `CC(C)OC(=O)C1=C(N)OC2=C(C(=O)OC2)C12C(=O)Nc1ccc(Cl)cc12` (centres unmarked) [compound (i)], the IC50 ([3]; read-out: IC50, cytotoxic activity against MDA-MB-231) is listed as 11 µM.

In the case of `N#CC1=C(c2ccccc2)Nc2c(c(-c3cccs3)nn2-c2ccccc2)C12C(=O)Nc1ccccc12` (centres unmarked) [Compound 6a, 2-Oxo-1',6'-diphenyl-3'-(thiophen-2-yl)-1',7'-dihydrospiro[indoline-3,4'-pyrazolo[3,4-b]pyridine]-5'-carbonitrile], the IC50 [1] is reported as 6.7 µM, the “Bax” value [6] is reported as 405.5 pg/mL and the “Bax, number of folds of control” value [6] is reported as 506.8 folds. The “Caspase-3” value [7] was 0.3501 ng/mL, the “Bcl-2” value [9] was 0.3958 ng/mL and the “Bcl-2, number of folds of control” value [9] was 0.147 folds. For the same molecule, the “Bcl-2 expression compared to basal level in the control” value [9] was 14.7%, the IC50 [10, 13] was 78.1 µM and the “Selectivity Index” value [10] was 11.7. The IC50 [2] was 0.43 ± 0.04 µM.

With `N#CC1=C(c2ccccc2)Nc2c(c(-c3cccs3)nn2-c2ccccc2)C12C(=O)Nc1ccc(Br)cc12` (centres unmarked) [Compound 6i, 5-Bromo-2-oxo-1',6'-diphenyl-3'-(thiophen-2-yl)-1',7'-dihydrospiro[indoline-3,4'-pyrazolo[3,4-b]pyridine]-5'-carbonitrile] the IC50 [1] was 6.7 µM, the IC50 [10, 13] was 39.3 µM and the “Selectivity Index” value [10] was 5.9. The IC50 [2] was 0.12 ± 0.01 µM.

In the case of `CC(=O)n1c(C)nc2c(c1=O)[C@@]1(C(=O)Nc3c(F)cccc31)c1c(c3cc(F)ccc3oc1=O)O2` [derivative (ii)], the IC50 [11] is listed as 6.9 µM.

In the case of `CC(C)(C)C1=NN(c2ccccc2)C2(C(=O)Nc3c(Cl)cccc32)C1c1ccccc1` (centres unmarked) [compound (iii)], the IC50 ([3]; TNBC, read-out: IC50, cytotoxic activity MDA-MB-231) is listed as 6.4 µM and the IC50 [12] is listed as 8.6 µM.

Work on `COc1ccc(C2=C(C#N)C3(C(=O)Nc4ccc(Cl)cc43)c3c(-c4cccs4)nn(-c4ccccc4)c3N2)cc1` (centres unmarked) [Compound 6g, 5-Chloro-6'-(4-methoxyphenyl)-2-oxo-1'-phenyl-3'-(thiophen-2-yl)-1',7'-dihydrospiro[indoline-3,4'-pyrazolo[3,4-b]pyridine]-5'-carbonitrile] yielded an IC50 [1] of 24.1 µM and a melting point of over 300 °C.
